Measurements taken from patent US20240368177A1, “5-AMINO-6,8-DIHYDRO-1H-FURO[3,4-d]PYRROLO[3,2-b]PYRIDINE-2-CARBOXAMIDE DERIVATIVES AS MTA-COOPERATIVE INHIBITORS OF PRMT5” (BeiGene Switzerland GmbH, priority 2023, published 2024).

Experiments:
HCT116-MTAP-KO = assay: Cell killing in HCT116 isogenic pair (Cell Titer-Glo viability), MTAP knock-out cells; assay type: cell-based, human; details: Homo sapiens, HCT-116, 144 h, 6 days incubation, 0-10 μM, * = more than 50% viability inhibition at tested concentration without a full curve
Summary of the method: (§1)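 HCT116 MTAP-knockout or mock-knockout (MTAP wildtype) cells in RPMI 1640 with 10% FBS were seeded overnight, then exposed to test compound at 0–10 μM final for 6 days at 37° C. Viability was measured by CellTiter-Glo luminescence and IC50 was fitted.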

HCT116-mock-RNA-KO = assay: Cell killing in HCT116 isogenic pair (Cell Titer-Glo viability), mock knock-out cells with MTAP wildtype genotype; assay type: cell-based, human; details: Homo sapiens, HCT-116, 144 h, 6 days incubation, 0-10 μM
Summary of the method: as §1

Structure (SMILES) | IC50 (HCT116-MTAP-KO) [nM] | IC50 (HCT116-mock-RNA-KO) [nM]
CCN(C(=O)c1cc2nc(N)c3c(c2[nH]1)COC3)[C@H](C)c1ncc(Br)cc1F [Example 143, (R)-5-amino-N-(1-(5-bromo-3-fluoropyridin-2-yl)ethyl)-N-ethyl-6,8-dihydro-1H-furo[3,4-d]pyrrolo[3,2-b]pyridine-2-carboxamide] | 11 | 1380
CCN(C(=O)c1cc2nc(N)c3c(c2[nH]1)COC3)[C@@H](C)c1ncc(Br)cc1F [Example 144, (S)-5-amino-N-(1-(5-bromo-3-fluoropyridin-2-yl)ethyl)-N-ethyl-6,8-dihydro-1H-furo[3,4-d]pyrrolo[3,2-b]pyridine-2-carboxamide] | 543 | > 10000
C[C@H](c1ccc(C(F)(F)F)cc1F)N(C)C(=O)c1cc2nc(N)c3c(c2[nH]1)COC3 [Example 145, (R)-5-amino-N-(1-(2-fluoro-4-(trifluoromethyl)phenyl)ethyl)-N-methyl-6,8-dihydro-1H-furo[3,4-d]pyrrolo[3,2-b]pyridine-2-carboxamide] | 26 | 3430
C[C@@H](c1ccc(C(F)(F)F)cc1F)N(C)C(=O)c1cc2nc(N)c3c(c2[nH]1)COC3 [Example 146, (S)-5-amino-N-(1-(2-fluoro-4-(trifluoromethyl)phenyl)ethyl)-N-methyl-6,8-dihydro-1H-furo[3,4-d]pyrrolo[3,2-b]pyridine-2-carboxamide] | 316 | > 10000
C[C@H]1OCc2c1c(N)nc1cc(C(=O)N(C)[C@@H](C)c3ccc(C(F)(F)F)cc3F)[nH]c21 [Example 147, (R)-5-amino-N—((S)-1-(2-fluoro-4-(trifluoromethyl)phenyl)ethyl)-N,6-dimethyl-6,8-dihydro-1H-furo[3,4-d]pyrrolo[3,2-b]pyridine-2-carboxamide] | 1230 | 5420
C[C@H](c1ccc(C(F)(F)F)cc1F)N(C)C(=O)c1cc2nc(N)c3c(c2[nH]1)CO[C@@H]3C [Example 148, (R)-5-amino-N—((R)-1-(2-fluoro-4-(trifluoromethyl)phenyl)ethyl)-N,6-dimethyl-6,8-dihydro-1H-furo[3,4-d]pyrrolo[3,2-b]pyridine-2-carboxamide] | 19 | 2440
C[C@@H](c1c(F)cc(C(F)(F)F)cc1F)N(C)C(=O)c1cc2nc(N)c3c(c2[nH]1)COC3 [Example 149, (S)-5-amino-N-(1-(2,6-difluoro-4-(trifluoromethyl)phenyl)ethyl)-N-methyl-6,8-dihydro-1H-furo[3,4-d]pyrrolo[3,2-b]pyridine-2-carboxamide] | 2680 | > 10000
C[C@H](c1c(F)cc(C(F)(F)F)cc1F)N(C)C(=O)c1cc2nc(N)c3c(c2[nH]1)COC3 [Example 150, (R)-5-amino-N-(1-(2,6-difluoro-4-(trifluoromethyl)phenyl)ethyl)-N-methyl-6,8-dihydro-1H-furo[3,4-d]pyrrolo[3,2-b]pyridine-2-carboxamide] | 32 | 2790
Cc1cc([C@@H](C)N(C)C(=O)c2cc3nc(N)c4c(c3[nH]2)COC4)c(F)cc1C1CC1 [Example 151, (R)-5-amino-N-(1-(4-cyclopropyl-2-fluoro-5-methylphenyl)ethyl)-N-methyl-6,8-dihydro-1H-furo[3,4-d]pyrrolo[3,2-b]pyridine-2-carboxamide] | 85 | > 10000
Cc1cc([C@H](C)N(C)C(=O)c2cc3nc(N)c4c(c3[nH]2)COC4)c(F)cc1C1CC1 [Example 152, (S)-5-amino-N-(1-(4-cyclopropyl-2-fluoro-5-methylphenyl)ethyl)-N-methyl-6,8-dihydro-1H-furo[3,4-d]pyrrolo[3,2-b]pyridine-2-carboxamide] | 1280 | > 10000
C[C@H](c1ncc(C2CC2)cc1F)N(C(=O)c1cc2nc(N)c3c(c2[nH]1)COC3)C1CCC1 [Example 153, (R)-5-amino-N-cyclobutyl-N-(1-(5-cyclopropyl-3-fluoropyridin-2-yl)ethyl)-6,8-dihydro-1H-furo[3,4-d]pyrrolo[3,2-b]pyridine-2-carboxamide] | 10 | 610
C[C@@H](c1ncc(C2CC2)cc1F)N(C(=O)c1cc2nc(N)c3c(c2[nH]1)COC3)C1CCC1 [Example 154, (S)-5-amino-N-cyclobutyl-N-(1-(5-cyclopropyl-3-fluoropyridin-2-yl)ethyl)-6,8-dihydro-1H-furo[3,4-d]pyrrolo[3,2-b]pyridine-2-carboxamide] | 1630 | 8520
C[C@H](c1ncc(C(F)(F)F)cc1F)N(C(=O)c1cc2nc(N)c3c(c2[nH]1)COC3)C1CCC1 [Example 155, (R)-5-amino-N-cyclobutyl-N-(1-(3-fluoro-5-(trifluoromethyl)pyridin-2-yl)ethyl)-6,8-dihydro-1H-furo[3,4-d]pyrrolo[3,2-b]pyridine-2-carboxamide] | 19 | 2250
C[C@@H](c1ncc(C(F)(F)F)cc1F)N(C(=O)c1cc2nc(N)c3c(c2[nH]1)COC3)C1CCC1 [Example 156, (S)-5-amino-N-cyclobutyl-N-(1-(3-fluoro-5-(trifluoromethyl)pyridin-2-yl)ethyl)-6,8-dihydro-1H-furo[3,4-d]pyrrolo[3,2-b]pyridine-2-carboxamide] | 523 | > 10000
COCCN(C(=O)c1cc2nc(N)c3c(c2[nH]1)COC3)[C@H](C)c1ncc(C(F)(F)F)cc1F [Example 157, (R)-5-amino-N-(1-(3-fluoro-5-(trifluoromethyl)pyridin-2-yl)ethyl)-N-(2-methoxyethyl)-6,8-dihydro-1H-furo[3,4-d]pyrrolo[3,2-b]pyridine-2-carboxamide] | 64 | > 10000
COCCN(C(=O)c1cc2nc(N)c3c(c2[nH]1)COC3)[C@@H](C)c1ncc(C(F)(F)F)cc1F [Example 158, (S)-5-amino-N-(1-(3-fluoro-5-(trifluoromethyl)pyridin-2-yl)ethyl)-N-(2-methoxyethyl)-6,8-dihydro-1H-furo[3,4-d]pyrrolo[3,2-b]pyridine-2-carboxamide] | 2020 | > 10000
C[C@H](c1ccc(C2CC2)cn1)N(C(=O)c1cc2nc(N)c3c(c2[nH]1)COC3)C1CCC1 [Example 159, (R)-5-amino-N-cyclobutyl-N-(1-(5-cyclopropylpyridin-2-yl)ethyl)-6,8-dihydro-1H-furo[3,4-d]pyrrolo[3,2-b]pyridine-2-carboxamide] | 36 | 2580
C[C@@H](c1ccc(C2CC2)cn1)N(C(=O)c1cc2nc(N)c3c(c2[nH]1)COC3)C1CCC1 [Example 160, (S)-5-amino-N-cyclobutyl-N-(1-(5-cyclopropylpyridin-2-yl)ethyl)-6,8-dihydro-1H-furo[3,4-d]pyrrolo[3,2-b]pyridine-2-carboxamide] | 598 | > 10000
CCN(C(=O)c1cc2nc(N)c3c(c2[nH]1)COC3)[C@@H]1COC2(CC2)c2cc(C(F)(F)F)ccc21 [Example 161, (S)-5-amino-N-ethyl-N-(7′-(trifluoromethyl)spiro[cyclopropane-1,1′-isochroman]-4′-yl)-6,8-dihydro-1H-furo[3,4-d]pyrrolo[3,2-b]pyridine-2-carboxamide] | 39 | 2800
CN(C(=O)c1cc2nc(N)c3c(c2[nH]1)COC3)[C@@H]1CCOc2cc(C(F)(F)F)ccc21 [Example 162, (R)-5-amino-N-methyl-N-(7-(trifluoromethyl)chroman-4-yl)-6,8-dihydro-1H-furo[3,4-d]pyrrolo[3,2-b]pyridine-2-carboxamide] | 186 | > 10000
CN(C(=O)c1cc2nc(N)c3c(c2[nH]1)COC3)[C@H]1COCc2cc(C(F)(F)F)cnc21 [Example 163, (R)-5-amino-N-methyl-N-(3-(trifluoromethyl)-7,8-dihydro-5H-pyrano[4,3-b]pyridin-8-yl)-6,8-dihydro-1H-furo[3,4-d]pyrrolo[3,2-b]pyridine-2-carboxamide] | > 10000 | > 10000
CN(C(=O)c1cc2nc(N)c3c(c2[nH]1)COC3)[C@@H]1COCc2cc(C(F)(F)F)cnc21 [Example 164, (S)-5-amino-N-methyl-N-(3-(trifluoromethyl)-7,8-dihydro-5H-pyrano[4,3-b]pyridin-8-yl)-6,8-dihydro-1H-furo[3,4-d]pyrrolo[3,2-b]pyridine-2-carboxamide] | 145 | > 10000
C[C@H]1OCc2c1c(N)nc1cc(C(=O)N(C)[C@@H]3COC4(CC4)c4cc(C(F)(F)F)ccc43)[nH]c21 [Example 165, (R)-5-amino-N,6-dimethyl-N—((S)-7′-(trifluoromethyl)spiro[cyclopropane-1,1′-isochroman]-4′-yl)-6,8-dihydro-1H-furo[3,4-d]pyrrolo[3,2-b]pyridine-2-carboxamide] | 17 | 2570
CCN(C(=O)c1cc2nc(N)c3c(c2[nH]1)CO[C@@H]3C)[C@@H]1COC2(CC2)c2cc(C(F)(F)F)ccc21 [Example 166, (R)-5-amino-N-ethyl-6-methyl-N—((S)-7′-(trifluoromethyl)spiro[cyclopropane-1,1′-isochroman]-4′-yl)-6,8-dihydro-1H-furo[3,4-d]pyrrolo[3,2-b]pyridine-2-carboxamide] | 19 | 2150
CN(C(=O)c1cc2nc(N)c3c(c2[nH]1)COC3)[C@H]1COC2(CC2)c2cc(C(F)(F)F)cc(F)c21 [Example 167, (R)-5-amino-N-(5′-fluoro-7′-(trifluoromethyl)spiro[cyclopropane-1,1′-isochroman]-4′-yl)-N-methyl-6,8-dihydro-1H-furo[3,4-d]pyrrolo[3,2-b]pyridine-2-carboxamide] | 697 | 3320
